Results on twelve compounds are retold here after ChEMBL document CHEMBL1201862, “PubChem BioAssay data set” (2004).

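96-well plates; 48 h exposure; 5 concentrations. Endpoints by linear interpolation between flanking doses. Not reached: highest tested concentration assigned. Abbreviation: GI50, concentration required for 50% inhibition of growth.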 Calls of active or inactive are those of the source. No stated cut-off is given here; in the data, active = GI50 up to about 1.1 µM and inactive = higher.

Test in all cases: NCI tumour cell line growth inhibition, 48 h
Test [1] concerns UACC-62.
Test [2] concerns SK-MEL-28.
The subject of test [3] is OVCAR-5.
Test [4] has as its system M14.
Test [5] concerns SF-295.
The subject of test [6] is HCT-15.
Test [7] relates to MDA-N.
The subject of test [8] is HCC 2998.
Test [9] relates to MCF7.
Test [10] concerns Malme-3M.
In test [11] the test system is LOX IMVI.
The subject of test [12] is SNB-19.
The subject of test [13] is NCI-H226.
Test [14] concerns CAKI-1.
The test system of test [15] is HT-29.
Test [16] relates to ACHN.
The subject of test [17] is SK-OV-3.
Test [18] deals with MDA-MB-231.
Test [19] has as its system RPMI-8226.

On to `C[C@@H]1OC2(O)[C@@H]3CCCN3C(=O)N(Cc3ccccc3)N2C1=O` (stereo partly specified), for which the GI50 in [1] was > 100 µM (inactive); in test [2], > 100 µM (inactive); in test [3], > 100 µM (inactive); in [4] it was > 100 µM (inactive); in test [5], > 100 µM (inactive); in test [6], more than 100 µM. For the same compound, the GI50 in test [7], in test [8], in test [9], in [10], in [11] and in test [12] was > 100 µM (inactive) each time. Besides, the GI50 in test [13], in test [14], in [15], in test [16], in [17] and in test [18] was > 100 µM (inactive) throughout.
On to `CC1C[C@]2(C)C(=S)Nc3ccccc3[C@@H]2Nc2ccccc21` (stereo partly specified), for which the GI50 in [1] was 18 µM (inactive); in test [2] it was 0.39 µM (active); in test [3], 20.8 µM (inactive); in test [4], 17.4 µM (inactive); in test [5] it was 18.5 µM (inactive); in test [6] it was 21.6 µM. Further, the GI50 in [7] is 15 µM (inactive); in [8], 22.2 µM (inactive); in test [9] it was 13 µM (inactive); in [10], 15.9 µM (inactive); in [11] it was 13.4 µM (inactive); in test [12], 21.7 µM (inactive). For the same compound, the GI50 is 23.4 µM (inactive) in test [19]; 17.3 µM (inactive) in test [13]; 25.4 µM (inactive) in test [14]; 11.9 µM (inactive) in [15]; 19.3 µM (inactive) in test [16]; 13.2 µM (inactive) in test [18].
With `CC1(C)O[C@H]2OC(CO)C(N=[N+]=[N-])[C@H]2O1` (stereo partly specified), the GI50 in test [1] was > 100 µM (inactive); in [2], > 100 µM (inactive); in test [3], > 100 µM (inactive); in test [4], > 100 µM (inactive); in test [5] it was > 100 µM (inactive); in test [6], more than 100 µM. The GI50 in test [7], in test [8], in test [9], in [10], in [11] and in test [12] was > 100 µM (inactive) throughout. The GI50 in test [19], in test [14], in [15], in test [16] and in [18] was > 100 µM (inactive) in each case.
Regarding `[O-]c1c2c(nn1-c1ccc(Cl)cc1)c1ccccc1c[n+]2Cc1ccccc1`, the GI50 in test [1] is 44.6 µM (inactive); in test [2], > 100 µM (inactive); in test [3], > 100 µM (inactive); in test [4] it was > 100 µM (inactive); in test [5], 78.9 µM (inactive); in test [8], > 100 µM (inactive). Further, the GI50 in test [10] was 45.4 µM (inactive); in [11], > 100 µM (inactive); in [12], > 100 µM (inactive); in test [19], > 100 µM (inactive); in test [13] it was > 100 µM (inactive); in [14], > 100 µM (inactive). Further, the GI50 in test [15] was > 100 µM (inactive); in test [16] it was 80.5 µM (inactive); in [17] it was 40.2 µM (inactive).
For the compound `COc1cc([C@@H]2c3cc4c(cc3[C@@H](NC(=O)c3ccc(C#N)cc3)C3COC(=O)[C@@H]32)OCO4)cc(OC)c1O` (stereo partly specified), the GI50 was 0.316 µM (active) in [1]; 2.43 µM (inactive) in test [2]; 0.794 µM (active) in test [3]; 0.721 µM (active) in test [4]; 0.233 µM (active) in [5]; 2.28 µM in [6]. Also, the GI50 in test [8] was 1.6 µM (inactive); in test [10], 0.355 µM (active); in [11] it was 0.26 µM (active); in test [12], 0.348 µM (active); in test [19] it was 2.84 µM (inactive); in test [13], 0.0176 µM (active). For the same compound, the GI50 in [14] is 1.14 µM (inactive); in [15], 1.25 µM (inactive); in test [16] it was 0.0914 µM (active); in [17], 0.374 µM (active).
With `Cc1cc(-c2no[n+]([O-])c2-c2cc(C)sc2S(C)(=O)=O)c(S(C)(=O)=O)s1`, the GI50 in test [2] is > 100 µM (inactive); in test [3] it was > 100 µM (inactive); in test [4], > 100 µM (inactive); in test [5], > 100 µM (inactive); in test [6], more than 100 µM; in test [8], > 100 µM (inactive). In addition, the GI50 in test [11] is > 100 µM (inactive); in test [12], 20.2 µM (inactive); in test [19], > 100 µM (inactive); in [13], > 100 µM (inactive); in test [14], > 100 µM (inactive); in test [15] it was > 100 µM (inactive). Further, the GI50 in [16], in [17] and in [18] was > 100 µM (inactive) in each case.
On to `O=C1[C@@H]2C(c3ccccc3[N+](=O)[O-])=[N+](c3ccccc3)O[C@@H]2C(=O)N1c1ccc(Cc2ccc(N3C(=O)[C@H]4C(c5ccccc5[N+](=O)[O-])=[N+](c5ccccc5)O[C@H]4C3=O)cc2)cc1`, for which the GI50 was 67.6 µM (inactive) in [1]; > 100 µM (inactive) in test [2]; > 100 µM (inactive) in test [3]; 16.4 µM (inactive) in test [4]; > 100 µM (inactive) in test [5]; more than 100 µM in test [6]. The GI50 in [8] was > 100 µM (inactive); in test [10], 27.7 µM (inactive); in test [11] it was > 100 µM (inactive); in [12], > 100 µM (inactive); in [19] it was > 100 µM (inactive); in test [13], 74.8 µM (inactive). Also, the GI50 in [14] is 77.8 µM (inactive); in test [15], > 100 µM (inactive); in test [16] it was > 100 µM (inactive); in test [17], > 100 µM (inactive).
Take `O=[N+]([O-])c1ccc(-c2ccc(-c3csc(Nc4ccccc4)n3)o2)cc1`: the GI50 is 21.3 µM (inactive) in test [1]; 17.6 µM (inactive) in test [2]; 17.7 µM (inactive) in test [3]; 20.6 µM (inactive) in test [4]; 34.6 µM (inactive) in [5]; 19.7 µM in test [6]. The GI50 in [8] is 25.1 µM (inactive); in test [10], 17 µM (inactive); in test [11], 18.5 µM (inactive); in test [12], 40 µM (inactive); in test [19], 12.2 µM (inactive); in test [13], 40.6 µM (inactive). The GI50 in [14] was 20.6 µM (inactive); in [15] it was 22.7 µM (inactive); in [16] it was 17.3 µM (inactive); in [17], > 100 µM (inactive).
For `CCOc1cc(/C=C2/C(C)=NN(c3cccc(Cl)c3)/C2=N/c2nc3ccccc3s2)ccc1O`, the GI50 was 34.7 µM (inactive) in [2]; 98.9 µM (inactive) in test [3]; 24.9 µM (inactive) in [4]; 24.8 µM (inactive) in test [5]; 21.8 µM in test [6]; 14.3 µM (inactive) in test [8]. Besides, the GI50 in test [9] is 28.5 µM (inactive); in test [11], 35.9 µM (inactive); in [19], 38.3 µM (inactive); in test [13], 23.7 µM (inactive); in [15], 41.2 µM (inactive); in test [16] it was 24.3 µM (inactive). The values for the GI50 in test [17] and in test [18] were 23 µM (inactive) and 24.7 µM (inactive), respectively.
Regarding `CCOP(=O)(OCC)/C(C#N)=C/c1ccco1`, the GI50 in test [1] was > 100 µM (inactive); in test [2], > 100 µM (inactive); in test [3], > 100 µM (inactive); in test [4] it was > 100 µM (inactive); in test [5], > 100 µM (inactive); in [6], more than 100 µM. Further, the GI50 in [8], in [10], in test [11], in test [19], in [13] and in test [14] was > 100 µM (inactive) in each case. The GI50 in test [15], in test [16] and in test [17] was > 100 µM (inactive) in each case.
As to `CCOC(=O)/C(=C\c1cccs1)P(=O)(OCC)OCC`, the GI50 is 16.4 µM (inactive) in [1]; 17.2 µM (inactive) in test [2]; 21.9 µM (inactive) in test [3]; 16.1 µM (inactive) in test [4]; 29.4 µM (inactive) in test [5]; 17.5 µM in test [6]. The GI50 is 18.4 µM (inactive) in [8]; 22.7 µM (inactive) in test [10]; 15.7 µM (inactive) in [11]; 53.2 µM (inactive) in test [12]; 20.4 µM (inactive) in test [19]; 18.7 µM (inactive) in test [13]. Besides, the GI50 in test [14] was 18.2 µM (inactive); in test [15], 20.6 µM (inactive); in test [16], 17.6 µM (inactive); in test [17] it was 38.9 µM (inactive).
As for `CN1C/C(=C\c2ccc(C(=O)O)cc2)C(=O)/C(=C/c2ccc(C(=O)O)cc2)C1`, the GI50 in test [1] is > 100 µM (inactive); in [2] it was > 100 µM (inactive); in test [3], > 100 µM (inactive); in [4], > 100 µM (inactive); in [5], > 100 µM (inactive); in [6], more than 100 µM. The GI50 in test [8], in test [10], in [11], in test [19], in test [13] and in [14] was > 100 µM (inactive) in each case. Besides, the GI50 in test [15], in test [16] and in test [17] was > 100 µM (inactive) throughout.
